This is an account of results in US20120015988A1, “Sulfone Compounds Which Modulate The CB2 Receptor” (BOEHRINGER INGELHEIM INTERNATIONAL GMBH, priority 2008, published 2012).

The target in the experiment is T1, human CB2R (Homo sapiens, UniProt P34972).
T1 construct: host or cells: CHO cells
Nature of the experiment: CB2R mediated modulation of cAMP synthesis. It counts as cell-based. The conditions noted are these: CHO cells expressing human CB2R; concentration at which 50% of the forskolin-stimulated cAMP synthesis was inhibited; 100% defined by 1 uM CP55940; read-out: CB2 EC50. The protocol:
B. CB2R Mediated Modulation of Camp Synthesis:
Compounds of the invention were evaluated for their CB2 agonist or inverse agonistic activity in accordance with the following experimental method.
CHO cells expressing human CB2R (Euroscreen) were plated at a density of 5000 cells per well in 384 well plates and incubated overnight at 37° C. After removing the media, the cells were treated with test compounds diluted in stimulation buffer containing 1 mM IBMX, 0.25% BSA and 10 uM Forskolin. The assay was incubated for 30 minutes at 37° C. Cells were lysed and the cAMP concentration was measured using DiscoverX-XS cAMP kit, following the manufacturer's protocol. In this setting, agonists will decrease forskolin induced production of cAMP while inverse agonists will further increase forskolin induced production of cAMP. EC50 of agonists were calculated as follows. The maximal amount of cAMP produced by forskolin compared to the level of cAMP inhibited by 1 uM CP55940 is defined as 100%. The EC50 value of each test compound was determined as the concentration at which 50% of the forskolin-stimulated cAMP synthesis was inhibited. Data was analyzed using a four-parameter logistic model. (Model 205 of XLfit 4.0).

T1 sequence (P34972 whole entry): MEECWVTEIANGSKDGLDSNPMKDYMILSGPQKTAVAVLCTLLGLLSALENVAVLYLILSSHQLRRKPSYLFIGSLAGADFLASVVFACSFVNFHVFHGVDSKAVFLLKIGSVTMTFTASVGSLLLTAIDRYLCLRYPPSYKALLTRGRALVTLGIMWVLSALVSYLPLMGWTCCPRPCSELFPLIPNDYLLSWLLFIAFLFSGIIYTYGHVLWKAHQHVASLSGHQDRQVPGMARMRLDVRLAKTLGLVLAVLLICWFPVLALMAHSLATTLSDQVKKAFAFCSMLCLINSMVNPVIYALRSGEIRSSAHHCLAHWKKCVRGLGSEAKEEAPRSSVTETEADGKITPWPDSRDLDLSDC

What is called EC50 is the concentration needed to bring the measured effect to its halfway point. Turning to `Cn1nc(C(C)(C)C)cc1-c1coc(C(C)(C)S(=O)(=O)c2ccc(Cl)cc2)n1` [Example 1, 4-(5-tert-butyl-2-methyl-2H-pyrazol-3-yl)-2-[1-(4-chloro-benzenesulfonyl)-1-methyl-ethyl]-oxazole], the EC50 came out at 0.92 nM.
For `Cn1nc(C(C)(C)C)cc1-c1coc(C(C)(C)S(=O)(=O)c2ccc(F)cc2)n1` [Example 2, 4-(5-tert-butyl-2-methyl-2H-pyrazol-3-yl)-2-[1-(4-fluoro-benzenesulfonyl)-1-methyl-ethyl]-oxazole] the value was 0.35 nM; for `Cn1nc(C(C)(C)C)cc1-c1coc(C(C)(C)S(=O)(=O)c2ccc(Cl)cc2F)n1` [Example 3, 4-(5-tert-butyl-2-methyl-2H-pyrazol-3-yl)-2-[1-(4-chloro-2-fluoro-benzenesulfonyl)-1-methyl-ethyl]-oxazole], 3.9 nM; for `Cc1ccc(S(=O)(=O)C(C)(C)c2nc(-c3cc(C(C)(C)C)nn3C)co2)cc1` [Example 4, 4-(5-tert-butyl-2-methyl-2H-pyrazol-3-yl)-2-[1-methyl-1-(toluene-4-sulfonyl)-ethyl]-oxazole], 12 nM.
Next, `Cn1nc(C(C)(C)C)cc1-c1coc(C(C)(C)S(=O)(=O)CC2CCOCC2)n1` [Example 5, 4-(5-tert-butyl-2-methyl-2H-pyrazol-3-yl)-2-[1-methyl-1-(tetrahydro-pyran-4-ylmethanesulfonyl)-ethyl]-oxazole]: 145 nM; `Cn1nc(C(C)(C)C)cc1-c1coc(C(C)(C)S(=O)(=O)C2CCCCC2)n1` [Example 6, 4-(5-tert-butyl-2-methyl-2H-pyrazol-3-yl)-2-(1-cyclohexanesulfonyl-1-methyl-ethyl)-oxazole]: 371 nM.
Next, `CC(C)(C)c1cc(-c2coc(C(C)(C)S(=O)(=O)c3ccc(Cl)cc3)n2)no1` [Example 7, 5-tert-butyl-3-{2-[1-(4-chloro-benzenesulfonyl)-1-methyl-ethyl]-oxazol-4-yl}-isoxazole]: 0.9 nM.
With `Cn1nc(C(C)(C)C)cc1-c1cnc(C(C)(C)S(=O)(=O)c2ccc(Cl)cc2)o1` [Example 8, 5-(5-tert-butyl-2-methyl-2H-pyrazol-3-yl)-2-[1-(4-chloro-benzenesulfonyl)-1-methyl-ethyl]-oxazole], the concentration for a half-maximal effect (EC50) was 22 nM.
For `Cn1nc(C(C)(C)C)cc1-c1cnc(C(C)(C)S(=O)(=O)c2ccc(F)cc2)o1` [Example 9, 5-(5-tert-butyl-2-methyl-2H-pyrazol-3-yl)-2-[1-(4-fluoro-benzenesulfonyl)-1-methyl-ethyl]-oxazole] the value was 5.8 nM; for `Cn1nc(C(C)(C)C)cc1-c1nnc(C(C)(C)S(=O)(=O)c2ccc(Cl)cc2)[nH]1` [Example 12, 3-(5-tert-butyl-2-methyl-2H-pyrazol-3-yl)-5-[1-(4-chloro-benzenesulfonyl)-1-methyl-ethyl]-4H-[1,2,4]triazole], 12 nM.
For `CC(C)(C)c1cc(-c2nnc(C(C)(C)S(=O)(=O)CC3CCOCC3)[nH]2)on1` [Example 14, 3-(3-tert-butyl-isoxazol-5-yl)-5-[1-methyl-1-(tetrahydro-pyran-4-ylmethanesulfonyl)-ethyl]-4H-[1,2,4]triazole] the value was 159 nM; for `CC(C)(c1nc(C2CCCCC2)no1)S(=O)(=O)c1ccc(C(F)(F)F)cc1` [Example 16, 3-cyclohexyl-5-[1-methyl-1-(4-trifluoromethyl-benzenesulfonyl)-ethyl]-[1,2,4]oxadiazole], 12 nM; for `Cn1nc(C(C)(C)C)cc1-c1nc(C(C)(C)S(=O)(=O)c2ccc(Cl)cc2)no1` [Example 18, 5-(5-tert-butyl-2-methyl-2H-pyrazol-3-yl)-3-[1-(4-chloro-benzenesulfonyl)-1-methyl-ethyl]-[1,2,4]oxadiazole], 2.7 nM.
For `Cn1nc(C(C)(C)C)cc1-c1nc(C(C)(C)S(=O)(=O)CC2CCOCC2)no1` [Example 19, 5-(5-tert-butyl-2-methyl-2H-pyrazol-3-yl)-3-[1-methyl-1-(tetrahydro-pyran-4-ylmethanesulfonyl)-ethyl]-[1,2,4]oxadiazole] the value was 9.2 nM; for `CC(C)(C)c1cc(-c2nnc(C(C)(C)S(=O)(=O)c3ccc(Cl)cc3)o2)on1` [Example 22, 2-(3-tert-butyl-isoxazol-5-yl)-5-[1-(4-chloro-benzenesulfonyl)-1-methyl-ethyl]-[1,3,4]oxadiazole], 5.3 nM; for `CC(C)(C)c1cc(-c2nnc(C(C)(C)S(=O)(=O)CC3CCOCC3)o2)on1` [Example 24, 2-(3-tert-butyl-isoxazol-5-yl)-5-[1-methyl-1-(tetrahydro-pyran-4-ylmethanesulfonyl)-ethyl]-[1,3,4]oxadiazole], 48 nM.
`CC(C)(C)c1cc(-c2nnc(C(C)(C)S(=O)(=O)c3ccc(Cl)cc3)o2)no1` [Example 25, 2-(5-tert-butyl-isoxazol-3-yl)-5-[1-(4-chloro-benzenesulfonyl)-1-methyl-ethyl]-[1,3,4]oxadiazole]: the EC50 stood at 6.9 nM.
Next, `Cn1nc(C(C)(C)C)cc1-c1nnc(C(C)(C)S(=O)(=O)c2ccc(Cl)cc2)o1` [Example 26, 2-(5-tert-butyl-2-methyl-2H-pyrazol-3-yl)-5-[1-(4-chloro-benzenesulfonyl)-1-methyl-ethyl]-[1,3,4]oxadiazole]: 9 nM; `CC(C)(C)c1cc(-c2nnc(C(C)(C)S(=O)(=O)c3ccc(F)cc3)o2)no1` [Example 27, 2-(5-tert-butyl-isoxazol-3-yl)-5-[1-(4-fluoro-benzenesulfonyl)-1-methyl-ethyl]-[1,3,4]oxadiazole]: 35 nM.
Next, `Cn1nc(C(C)(C)C)cc1-c1nnc(C(C)(C)S(=O)(=O)c2ccc(F)cc2)o1` [Example 28, 2-(5-tert-butyl-2-methyl-2H-pyrazol-3-yl)-5-[1-(4-fluoro-benzenesulfonyl)-1-methyl-ethyl]-[1,3,4]oxadiazole]: 16 nM; `CC(C)(C)c1cc(-c2nnc(C(C)(C)S(=O)(=O)C3CCOCC3)o2)on1` [Example 29, 2-(3-tert-butyl-isoxazol-5-yl)-5-[1-methyl-1-(tetrahydro-pyran-4-sulfonyl)-ethyl]-[1,3,4]oxadiazole]: 27 nM; `CC(C)(C)c1cc(-c2nnc(C(C)(C)S(=O)(=O)Cc3ccc(F)cc3)o2)on1` [Example 31, 2-(3-tert-butyl-isoxazol-5-yl)-5-[1-(4-fluoro-phenylmethanesulfonyl)-1-methyl-ethyl]-[1,3,4]oxadiazole]: 162 nM.
Next, `Cn1nc(C(C)(C)C)cc1-c1nnc(C2(S(=O)(=O)c3ccc(Cl)cc3)CC2)o1` [Example 32, 2-(5-tert-butyl-2-methyl-2H-pyrazol-3-yl)-5-[1-(4-chloro-benzenesulfonyl)-cyclopropyl]-[1,3,4]oxadiazole]: 3.7 nM; `CC(C)(C)c1cc(-c2noc(C(C)(C)S(=O)(=O)c3ccc(F)cc3)n2)on1` [Example 34, 3-(3-tert-butyl-isoxazol-5-yl)-5-[1-(4-fluoro-benzenesulfonyl)-1-methyl-ethyl]-[1,2,4]oxadiazole]: 1.8 nM.
With `CC(C)(C)c1cc(-c2noc(C(C)(C)S(=O)(=O)c3ccc(C(F)(F)F)cc3)n2)on1` [Example 35, 3-(3-tert-butyl-isoxazol-5-yl)-5-[1-methyl-1-(4-trifluoromethyl-benzenesulfonyl)-ethyl]-[1,2,4]oxadiazole], the half-maximal effective concentration (EC50) was found to be 5.9 nM.
For `CC(C)(C)c1cc(-c2noc(C(C)(C)S(=O)(=O)CC3CCOCC3)n2)on1` [Example 36, 3-(3-tert-butyl-isoxazol-5-yl)-5-[1-methyl-1-(tetrahydro-pyran-4-ylmethanesulfonyl)-ethyl]-[1,2,4]oxadiazole] the value was 15 nM; for `CC(C)(C)c1cc(-c2nc(C(C)(C)S(=O)(=O)c3ccc(F)cc3)no2)on1` [Example 37, 5-(3-tert-butyl-isoxazol-5-yl)-3-[1-(4-fluoro-benzenesulfonyl)-1-methyl-ethyl]-[1,2,4]oxadiazole], 1 nM.
Next, `CC(C)(C)c1cc(-c2nc(C(C)(C)S(=O)(=O)CC3CCOCC3)no2)on1` [Example 38, 5-(3-tert-butyl-isoxazol-5-yl)-3-[1-methyl-1-(tetrahydro-pyran-4-ylmethanesulfonyl)-ethyl]-[1,2,4]oxadiazole]: 210 nM.
`CC(C)(C)c1cc(-c2nnc(C(C)(C)S(=O)(=O)c3ccc(F)cc3)s2)on1` [Example 39, 2-(3-tert-butyl-isoxazol-5-yl)-5-[1-(4-fluoro-benzenesulfonyl)-1-methyl-ethyl]-[1,3,4]thiadiazole]: the EC50 worked out at 6.7 nM.
As for `CC(C)(C)c1cc(-c2nnc(C(C)(C)S(=O)(=O)c3ccc(F)cc3)s2)no1` [Example 40, 2-(5-tert-butyl-isoxazol-3-yl)-5-[1-(4-fluoro-benzenesulfonyl)-1-methyl-ethyl]-[1,3,4]thiadiazole], the EC50 stood at 17 nM.
Next, `Cn1nc(C(C)(C)C)cc1-c1nnc(C(C)(C)S(=O)(=O)c2ccc(F)cc2)s1` [Example 41, 2-(5-tert-butyl-2-methyl-2H-pyrazol-3-yl)-5-[1-(4-fluoro-benzenesulfonyl)-1-methyl-ethyl]-[1,3,4]thiadiazole]: 2.5 nM.
